Source: patent US10932480B2, “Animal feed additive containing diurnosid and/or cestrumosid” (priority 2016, dated 2021)

Tested on: broilers
Assay: Field test in broilers, diurnoside/cestrumoside plus vitamin D3 metabolites (Example 1)
Assay type: in vivo
Conditions: in combination with diurnoside or cestrumoside versus control groups with calcitriol or calcifediol alone, FIG. 1
Excerpt: In a commercial boiler feeding operation, five stalls each with approximate 43,000 animals were compared with regard to the incidence of osteochondrosis/dyschondroplasia in a field test. All the stalls were fed using conventional boiler fattening feed, distributed under the brand name GeflügelmastKorn® (Company: Garant Tiernahrung [Garant Animal Nutrition]), wherein no further additives were used in stall K1 (controls).
For stall K2 (control group calcitriol), a feed additive containing 20 ppm calcitriol in an amount of 150 ppm (based on feed with 88% dry solids) was mixed into the broiler fattening feed.
For stall K2 (control group calcifediol), a feed additive containing 200 ppm calcifediol in an amount of 150 ppm (based on feed with 88% dry solids) was mixed into the broiler fattening feed.
For stall V1 (experimental group with diurnoside plus calcitriol), the feed additive according to the invention, containing 100 ppm diurnoside and 10 ppm calcitriol was mixed into the boiler fattening feed in an amount of 150 ppm (based on feed with 88% dry solids).
For the stall V2 (experimental group with cestrumoside plus calcifediol), the feed additive according to the invention, containing 20 ppm cestrumoside and 100 ppm calcifediol in an amount of 150 ppm (based on feed with 88% dry solids) was mixed into the broiler fattening feed. […]

Row | SMILES | effective doses for calcitriol and calcifediol
1 | C=C1CC[C@H](O)C/C1=C/C=C1\CCC[C@]2(C)[C@@H]([C@H](C)CCCC(C)(C)O)CC[C@@H]12 [calcifediol] | reduced by one-half
2 | C=C1/C(=C\C=C2/CCC[C@]3(C)[C@@H]([C@H](C)CCCC(C)(C)O)CC[C@@H]23)C[C@@H](O)C[C@@H]1O [calcitriol] | reduced by one-half
